Data reported in US7833513B2, “Treatment of Alzheimer's Disease” (Rhode Island Hospital, priority 2004, dated 2010).
“Also recorded” adds a separate entry of the source.

Experiments:
Format in all cases: in vivo, Long Evans rat
[1] = system: brain gene expression; assay: ic-STZ ± PPAR agonist: real time quantitative RT-PCR of temporal lobe, hypothalamus, cerebellum; conditions: for APP mRNA relative to control and ic-STZ: cerebella; for Tau gene expression / APP gene expression: temporal lobe and hypothalamus; for ic-STZ associated reductions in IGF-II expression: rat, in vivo
Experimental: (§1) On the same day, sub-sets of the ic-STZ group were given a single intra-peritoneal injection of vehicle (saline), or a PPAR-α (GW7647; 25 ug/Kg), PPAR-δ (L-165,041; 2 μg/Kg), or PPAR-γ (F-L-Leu; 20 μg/Kg) activator (CalBiochem, Carlsbad, Calif.). […] In addition, at 4 weeks of age, memory and learning were evaluated using a Morris Water Maze (R. W. Hickey, M. Akino, S. Strausbaugh, G. M. De Courten-Myers. Use of the Morris water maze and acoustic startle chamber to evaluate neurologic injury after asphyxial arrest in rats. Pediatr Res 39(1) (1996), 77-84). The procedures and use of rats in these experiments were approved by the Lifespan-Rhode Island Hospital IACUC committee.
Real Time Quantitative RT-PCR: Total RNA isolated from the temporal lobe, hypothalamus, and cerebellum was reverse transcribed using the AMV First Strand cDNA synthesis kit (Roche Diagnostics Corporation, Indianapolis, Ind.) and random oligodeoxynucleotide primers. […] In addition, pathological shifts in cell type associated with ic-STZ-mediated neurodegeneration were detected by measuring the mRNA levels of Hu (neurons), GFAP (astrocytes), myelin-associated glycloprotein (MAG-1; oligodendroglia), and allograft inflammatory factor-1 (AIF-1; microglia) (E. J. Rivera, A. Goldin, N. Fulmer, R. Tavares, J. R. Wands, S. M. de la Monte, J. Alzheimers Dis 8(3) (2005), 247-68). Ribosomal 18S RNA levels measured in parallel reactions were used to calculate the relative abundance of each mRNA transcript (J. E. Yeon, S. Califano, J. Xu, J. R. Wands, S. M. De La Monte. Potential role of PTEN phosphatase in ethanol-impaired survival signaling in the liver. Hepatology 38(3) (2003), 703-14, J. Xu, J. Eun Yeon, H. Chang, G. Tison, G. Jun Chen, J. R. Wands, et al. Ethanol impairs insulin-stimulated neuronal survival in the developing brain: Role of PTEN phosphatase. J Biol Chem (2003)). The gene expression levels were measured by real time quantitative RT-PCR Relative mRNA abundance was determined from the ng ratios of specific mRNA to 18S (J. E. Yeon, S. Califano, J. Xu, J. R. Wands, S. M. De La Monte. Potential role of PTEN phosphatase in ethanol-impaired survival signaling in the liver. Hepatology 38(3) (2003), 703-14, J. Xu, J. Eun Yeon, H. Chang, G. Tison, G. Jun Chen, J. R. Wands, et al. Ethanol impairs insulin-stimulated neuronal survival in the developing brain: Role of PTEN phosphatase. J Biol Chem (2003)).

[2] = system: GFAP, HNE, 8-OHdG, ChAT immunoreactivity; assay: ic-STZ ± PPAR agonist: immunohistochemical staining of brain; conditions: for ChAT immunoreactivity: basal forebrain region; for 8-OHdG immunoreactivity / GFAP immunoreactivity / HNE immunoreactivity: temporal cortex
Experimental: (§2) Histopathological and Immunohistochemical Staining Studies: Whole fresh brains were immersion fixed in Histofix (Amresco, Solon, Ohio) and then sectioned in the coronal plane along standardized landmarks, embedded in paraffin, and processed for histopathological studies. In addition, fresh brains were sectioned in the coronal plane to obtain a ˜3 mm thick slice that flanked the infundibulum. The 3-mm brain slice was snap frozen between two slabs of dry ice, and then stored at −80° C. for later RNA and protein studies. The residual tissue was immersion fixed and processed for histopathological studies. […] As negative controls for the immunostaining reactions, either the primary antibody was omitted or non-relevant monoclonal antibody to Hepatitis B virus was used in place of the relevant antibody. Immunoreactivity was detected using the avidin-biotin horseradish peroxidase complex method (S. M. de la Monte, T. Luong, T. R. Neely, D. Robinson, J. R. Wands. Mitochondrial DNA damage as a mechanism of cell loss in Alzheimer's disease. Lab Invest 80(8) (2000), 1323-35). All sections were examined under code.
Increased levels of 8-OHdG and 4-hydroxynonenol (HNE) have been detected in brains with AD (W. R. Markesbery, J. M. Carney. Oxidative alterations in Alzheimer's disease. Brain Pathol 9(1) (1999), 133-46, L. M. Sayre, D. A. Zelasko, P. L. Harris, G. Perry, R. G. Salomon, M. A. Smith. 4-Hydroxynonenal-derived advanced lipid peroxidation end products are increased in Alzheimer's disease. J Neurochem 68(5) (1997), 2092-7). […] In addition, it was of interest to relate indices of oxidative stress to GFAP immunoreactivity, which reflects astrocytic responses to tissue injury. Paraffin-embedded histological sections of brain were immunostained to detect GFAP, 8-OHdG or HNE using the ABC method with DAB as the chromogen (brown precipitate) and light hematoxylin as the counterstain.

[3] = system: ic-STZ-induced neurodegeneration; assay: ic-STZ ± PPAR agonist: brain histopathology (H&E); conditions: for preservation of cerebellar cortical architecture (H&E) / preservation of hippocampi and temporal lobes (H&E): 4 weeks after ic-STZ ± single IP PPAR agonist
Experimental: In addition, at 4 weeks of age, memory and learning were evaluated using a Morris Water Maze (R. W. Hickey, M. Akino, S. Strausbaugh, G. M. De Courten-Myers. Use of the Morris water maze and acoustic startle chamber to evaluate neurologic injury after asphyxial arrest in rats. Pediatr Res 39(1) (1996), 77-84). The procedures and use of rats in these experiments were approved by the Lifespan-Rhode Island Hospital IACUC committee.
as §2

[4] = system: learning and memory; assay: Morris Water Maze learning and memory test; conditions: for behavior, learning and memory during the training period: 4-week old rats; for mean latency period to arrive at the hidden platform relative to control: Trial Day 4 / final day of testing
Experimental: as §1
Morris Water Maze Behavioral Tests: A standard Morris Water Maze was used to measure learning (R. W. Hickey, M. Akino, S. Strausbaugh, G. M. De Courten-Myers. Use of the Morris water maze and acoustic startle chamber to evaluate neurologic injury after asphyxial arrest in rats. Pediatr Res 39(1) (1996), 77-84). On the first day of testing, the rats were oriented to the water maze and educated about the location of the platform. On the 3 subsequent days of testing, the platform was submerged just below the surface, and the rats were tested for their learning and memory of the platform location by measuring the latency period required to reach and recognize the platform. The rats were allowed 120 seconds to locate the platform, after which they were guided to it. After landing on the platform, the rats were allowed to orient themselves for 15 seconds prior to being rescued. The rats were tested three times each day, with 30 min. intervals between trials. The rats were placed in the same quadrant of the water maze for every trial, except for trials 2 and 3 on the final day testing, when the start locations were randomized to test mastery of platform memory.

| SMILES | APP mRNA relative to control and ic-STZ [1] | AChE mRNA compared with ic-STZ treatment alone ([1]; cerebellum) | AIF-1 (microglia) expression relative to ic-STZ group ([1]; cerebellum) | ChAT expression ([1]; cerebellum) | GFAP (astrocytes) expression relative to ic-STZ group ([1]; cerebellum) | Hu (neurons) expression relative to ic-STZ group ([1]; cerebellum) | IGF-I mRNA relative to control ([1]; cerebellum) | IGF-II receptor mRNA ([1]; cerebellum) | AChE mRNA ([1]; hypothalamus) | Hu gene expression ([1]; hypothalamus) | NOS 2 mRNA ([1]; temporal lobe) | NOX 1 mRNA ([1]; temporal lobe) | p53 mRNA ([1]; temporal lobe) | ChAT immunoreactivity [2] | 8-OHdG immunoreactivity [2] | HNE immunoreactivity [2] | preservation of cerebellar cortical architecture (H&E) [3] | preservation of hippocampi and temporal lobes (H&E) [3] | behavior, learning and memory during the training period [4] | mean latency period to arrive at the hidden platform relative to control [4] | further results |
| --- | --- | --- | --- | --- | --- | --- | --- | --- | --- | --- | --- | --- | --- | --- | --- | --- | --- | --- | --- | --- | --- |
| CCCc1c(OCCCOc2ccc(OCC(=O)O)cc2)ccc(C(C)=O)c1O [PPAR-δ agonist, L-165,041] | significantly higher | significantly reduced | increased | significantly increased | decreased | increased | significantly increased | significantly increased | significantly increased | significantly increased | comparable to control | comparable to control | comparable to control | variably increased | conspicuously reduced | conspicuously reduced | moderately effective; also recorded: markedly reduced | most striking therapeutic rescue | no detectable abnormalities in behavior, learning, or memory | no significant difference | IGF-I receptor mRNA ([1]; temporal lobe and cerebellum): significantly increased; Tau gene expression [1]: restored Tau gene expression to control levels; GFAP immunoreactivity [2]: conspicuously reduced; share of temporal cortex thickness spanned by the horizontal scale bar ([3]; FIG. 25A-E, control 30%): 30% |
| CC(C)C[C@H](NC(=O)OCC1c2ccccc2-c2ccccc21)C(=O)O [PPAR-γ agonist, F-L-Leu] | significantly higher | significantly reduced | increased | significantly increased | decreased | increased | significantly increased | significantly increased | significantly increased |  |  | significantly reduced |  | variably increased | conspicuously reduced | moderately reduced | ineffective | least effective | delayed learning and impaired memory | significantly higher | ic-STZ associated reductions in IGF-II expression [1]: variably prevented; IGF-I receptor mRNA ([1]; temporal lobe and cerebellum): significantly increased; APP gene expression [1]: significantly reduced; Tau gene expression [1]: restored Tau gene expression to control levels |
| CC(C)(Sc1ccc(CCN(CCCCC2CCCCC2)C(=O)NC2CCCCC2)cc1)C(=O)O [PPAR-α agonist, GW7647] |  |  |  | significantly increased |  |  |  |  |  | significantly increased |  | significantly reduced |  | variably increased | conspicuously reduced | no clear effect | moderately effective; also recorded: markedly reduced | less effective than the PPAR-δ agonist | delayed learning and impaired memory | significantly higher | MAG-1 gene expression ([1]; hypothalamus): increased; ic-STZ associated reductions in IGF-II expression [1]: variably prevented; APP gene expression [1]: significantly reduced; GFAP immunoreactivity [2]: no clear effect |
| CN(N=O)C(=O)NC1C(O)OC(CO)C(O)C1O (stereo not shown) [STZ] |  |  |  |  |  |  |  |  | significantly increased |  | significantly increased | significantly increased | significantly increased | markedly reduced |  |  |  |  |  |  | IGF-II receptor expression ([1]; hypothalamus): did not significantly impair; IGF-I mRNA ([1]; hypothalamus and cerebellum): not significantly reduced; IGF-I receptor expression ([1]; hypothalamus and cerebellum): significantly reduced; AChE expression ([1]; temporal lobe): significantly reduced; IGF-I receptor expression ([1]; temporal lobe): did not significantly impair; NOS 3 mRNA ([1]; temporal lobe): significantly increased; ChAT mRNA ([1]; temporal lobe and cerebellum): significantly reduced; IGF-II receptor expression ([1]; temporal lobe and cerebellum): significantly reduced; insulin receptor gene expression ([1]; temporal lobe, hypothalamus, cerebellum): significantly reduced; mean latency period vs control ([4]; first 3 days of testing): approximately twice as long as control; mean latency vs control ([4]; fourth day): no significant differences; learning and memory in Morris Water Maze ([4]; rats surviving 4 weeks or longer, preliminary studies): striking impairments in learning and memory |
